Source: the NIST ThermoML archive (doi:10.1021/je0502546)
Numbers after ± are expanded uncertainties.

Assays:
[1] = refractive index (Na D-line) (dimensionless); conditions: 101.33 kPa, Liquid, Standard Abbe refractometry
[2] = 101 kPa, Liquid; for viscosity: Capillary tube (Ostwald / Ubbelohde) method
[3] = xn = mol fraction of the nth substance listed; conditions: 101 kPa, Liquid; for viscosity: Capillary tube (Ostwald / Ubbelohde) method
[4] = refractive index (Na D-line) (dimensionless); xn = mol fraction of the nth substance listed; conditions: 101 kPa, Liquid, Standard Abbe refractometry

COc1ccccc1 [anisole]
Conditions | mass density, [2] [kg/m3] | refractive index, [1] | viscosity, [2] [mPa·s]
293.15 K | 993.8 ± 0.44 | 1.5177 ± 0.0007 | 1.084 ± 0.01
303.15 K | 984.37 ± 0.44 | 1.5124 ± 0.0007 | 0.931 ± 0.009

COc1ccccc1 [anisole] + CCCCc1ccccc1
x1 = 1
Conditions | mass density, [3] [kg/m3] | refractive index, [4] | viscosity, [3] [mPa·s]
293.15 K | 993.8 ± 0.44 | 1.5177 ± 0.0007 | 1.084 ± 0.01
303.15 K | 984.37 ± 0.44 | 1.5124 ± 0.0007 | 0.931 ± 0.009

COc1ccccc1 [anisole] + CCCc1ccccc1
x1 = 1
Conditions | mass density, [3] [kg/m3] | refractive index, [4] | viscosity, [3] [mPa·s]
293.15 K | 993.8 ± 0.44 | 1.5177 ± 0.0007 | 1.084 ± 0.01
303.15 K | 984.37 ± 0.44 | 1.5124 ± 0.0007 | 0.931 ± 0.009

COc1ccccc1 [anisole] + CCc1ccccc1
Conditions | mass density, [3] [kg/m3] | refractive index, [4] | viscosity, [3] [mPa·s]
293.15 K, x1 = 0.1061 | 879.21 ± 0.23 | 1.4977 ± 0.0007 | 0.691 ± 0.006
293.15 K, x1 = 0.2202 | 892.9 ± 0.24 | 1.5 ± 0.0007 | 0.721 ± 0.006
293.15 K, x1 = 0.3206 | 905.19 ± 0.26 | 1.502 ± 0.0007 | 0.752 ± 0.006
293.15 K, x1 = 0.4278 | 918.51 ± 0.28 | 1.5041 ± 0.0007 | 0.789 ± 0.007
293.15 K, x1 = 0.5402 | 932.69 ± 0.31 | 1.5065 ± 0.0007 | 0.834 ± 0.007
293.15 K, x1 = 0.6322 | 944.49 ± 0.33 | 1.5086 ± 0.0007 | 0.876 ± 0.008
293.15 K, x1 = 0.7282 | 956.99 ± 0.36 | 1.5108 ± 0.0007 | 0.923 ± 0.008
293.15 K, x1 = 0.8198 | 969.11 ± 0.39 | 1.513 ± 0.0007 | 0.973 ± 0.009
293.15 K, x1 = 0.8994 | 979.84 ± 0.41 | 1.5153 ± 0.0007 | 1.02 ± 0.009
293.15 K, x1 = 1 | 993.8 ± 0.44 | 1.5177 ± 0.0007 | 1.084 ± 0.01
303.15 K, x1 = 0.1061 | 870.49 ± 0.23 | 1.4922 ± 0.0007 | 0.616 ± 0.005
303.15 K, x1 = 0.2202 | 884.19 ± 0.24 | 1.4944 ± 0.0007 | 0.639 ± 0.006
303.15 K, x1 = 0.3206 | 896.45 ± 0.26 | 1.4964 ± 0.0007 | 0.662 ± 0.006
303.15 K, x1 = 0.4278 | 909.71 ± 0.28 | 1.4986 ± 0.0007 | 0.689 ± 0.006
303.15 K, x1 = 0.5402 | 923.84 ± 0.31 | 1.501 ± 0.0007 | 0.725 ± 0.006
303.15 K, x1 = 0.6322 | 935.58 ± 0.33 | 1.5031 ± 0.0007 | 0.759 ± 0.007
303.15 K, x1 = 0.7282 | 948.02 ± 0.36 | 1.5053 ± 0.0007 | 0.798 ± 0.007
303.15 K, x1 = 0.8198 | 960.07 ± 0.38 | 1.5075 ± 0.0007 | 0.841 ± 0.008
303.15 K, x1 = 0.8994 | 970.71 ± 0.41 | 1.5099 ± 0.0007 | 0.878 ± 0.008
303.15 K, x1 = 1 | 984.37 ± 0.44 | 1.5124 ± 0.0007 | 0.931 ± 0.009

COc1ccccc1 [anisole] + Cc1ccccc1
Conditions | mass density, [3] [kg/m3] | refractive index, [4] | viscosity, [3] [mPa·s]
293.15 K, x1 = 0.0966 | 879.58 ± 0.3 | 1.4993 ± 0.0007 | 0.62 ± 0.006
293.15 K, x1 = 0.1954 | 892.47 ± 0.31 | 1.5016 ± 0.0007 | 0.656 ± 0.006
293.15 K, x1 = 0.2911 | 904.89 ± 0.32 | 1.5037 ± 0.0007 | 0.693 ± 0.006
293.15 K, x1 = 0.3936 | 918.06 ± 0.34 | 1.506 ± 0.0007 | 0.736 ± 0.007
293.15 K, x1 = 0.5043 | 932.17 ± 0.35 | 1.5083 ± 0.0007 | 0.787 ± 0.007
293.15 K, x1 = 0.5985 | 944.06 ± 0.37 | 1.5102 ± 0.0007 | 0.834 ± 0.007
293.15 K, x1 = 0.6995 | 956.7 ± 0.39 | 1.5122 ± 0.0007 | 0.89 ± 0.008
293.15 K, x1 = 0.7956 | 968.63 ± 0.4 | 1.514 ± 0.0007 | 0.947 ± 0.008
293.15 K, x1 = 0.8986 | 981.29 ± 0.42 | 1.5159 ± 0.0007 | 1.013 ± 0.009
293.15 K, x1 = 1 | 993.8 ± 0.44 | 1.5177 ± 0.0007 | 1.084 ± 0.01
303.15 K, x1 = 0.0966 | 870.21 ± 0.3 | 1.4936 ± 0.0007 | 0.549 ± 0.005
303.15 K, x1 = 0.1954 | 883.13 ± 0.31 | 1.4959 ± 0.0007 | 0.579 ± 0.005
303.15 K, x1 = 0.2911 | 895.55 ± 0.32 | 1.4981 ± 0.0007 | 0.61 ± 0.006
303.15 K, x1 = 0.3936 | 908.76 ± 0.34 | 1.5003 ± 0.0007 | 0.645 ± 0.006
303.15 K, x1 = 0.5043 | 922.89 ± 0.35 | 1.5027 ± 0.0007 | 0.687 ± 0.006
303.15 K, x1 = 0.5985 | 934.8 ± 0.37 | 1.5046 ± 0.0007 | 0.726 ± 0.007
303.15 K, x1 = 0.6995 | 947.44 ± 0.38 | 1.5067 ± 0.0007 | 0.772 ± 0.007
303.15 K, x1 = 0.7956 | 959.38 ± 0.4 | 1.5085 ± 0.0007 | 0.818 ± 0.007
303.15 K, x1 = 0.8986 | 972.06 ± 0.42 | 1.5105 ± 0.0007 | 0.872 ± 0.008
303.15 K, x1 = 1 | 984.37 ± 0.44 | 1.5124 ± 0.0007 | 0.931 ± 0.009

COc1ccccc1 [anisole] + c1ccccc1
Conditions | mass density, [3] [kg/m3] | refractive index, [4] | viscosity, [3] [mPa·s]
293.15 K, x1 = 0.0938 | 889.8 ± 0.31 | 1.5032 ± 0.0008 | 0.677 ± 0.006
293.15 K, x1 = 0.1955 | 903.56 ± 0.32 | 1.5053 ± 0.0008 | 0.711 ± 0.006
293.15 K, x1 = 0.3053 | 917.74 ± 0.33 | 1.5074 ± 0.0008 | 0.751 ± 0.007
293.15 K, x1 = 0.3994 | 929.35 ± 0.35 | 1.5091 ± 0.0008 | 0.788 ± 0.007
293.15 K, x1 = 0.5 | 941.27 ± 0.36 | 1.5108 ± 0.0008 | 0.829 ± 0.007
293.15 K, x1 = 0.6005 | 952.68 ± 0.38 | 1.5124 ± 0.0007 | 0.874 ± 0.008
293.15 K, x1 = 0.6996 | 963.47 ± 0.39 | 1.5139 ± 0.0007 | 0.921 ± 0.008
293.15 K, x1 = 0.8013 | 974.11 ± 0.41 | 1.5153 ± 0.0007 | 0.972 ± 0.009
293.15 K, x1 = 0.8978 | 983.8 ± 0.43 | 1.5166 ± 0.0007 | 1.025 ± 0.009
293.15 K, x1 = 1 | 993.8 ± 0.44 | 1.5177 ± 0.0007 | 1.084 ± 0.01
303.15 K, x1 = 0.0938 | 881.47 ± 0.31 | 1.4967 ± 0.0008 | 0.587 ± 0.005
303.15 K, x1 = 0.1955 | 895.16 ± 0.32 | 1.4989 ± 0.0008 | 0.616 ± 0.006
303.15 K, x1 = 0.3053 | 909.24 ± 0.33 | 1.5011 ± 0.0008 | 0.649 ± 0.006
303.15 K, x1 = 0.3994 | 920.76 ± 0.35 | 1.5028 ± 0.0008 | 0.679 ± 0.006
303.15 K, x1 = 0.5 | 932.57 ± 0.36 | 1.5046 ± 0.0008 | 0.714 ± 0.007
303.15 K, x1 = 0.6005 | 943.88 ± 0.37 | 1.5064 ± 0.0007 | 0.751 ± 0.007
303.15 K, x1 = 0.6996 | 954.56 ± 0.39 | 1.508 ± 0.0007 | 0.791 ± 0.007
303.15 K, x1 = 0.8013 | 965.08 ± 0.41 | 1.5096 ± 0.0007 | 0.836 ± 0.008
303.15 K, x1 = 0.8978 | 974.66 ± 0.42 | 1.511 ± 0.0007 | 0.88 ± 0.008
303.15 K, x1 = 1 | 984.37 ± 0.44 | 1.5124 ± 0.0007 | 0.931 ± 0.009
